The values that follow come from article PMC6393386 (Frontiers in Pharmacology, 2019).

SMILES strings stand for the structures.

In experiment [1] the target is T1, Smo (smoothened), wild type hSmo (Homo sapiens, UniProt Q99835).
T1 construct: wild type hSmo expressed in HEK293 cells
As to the kind of experiment: BODIPY-cyclopamine competition in hSmo-transfected HEK293 cells (positive control). The experiment is classed as cell-based.

In experiment [2] the target is T1, Smo (smoothened), wild type hSmo. As to the kind of experiment: BODIPY-cyclopamine competition in hSmo-transfected HEK293 cells (microscopy and flow cytometry). In kind it is cell-based.

T1 sequence (Q99835 28-787): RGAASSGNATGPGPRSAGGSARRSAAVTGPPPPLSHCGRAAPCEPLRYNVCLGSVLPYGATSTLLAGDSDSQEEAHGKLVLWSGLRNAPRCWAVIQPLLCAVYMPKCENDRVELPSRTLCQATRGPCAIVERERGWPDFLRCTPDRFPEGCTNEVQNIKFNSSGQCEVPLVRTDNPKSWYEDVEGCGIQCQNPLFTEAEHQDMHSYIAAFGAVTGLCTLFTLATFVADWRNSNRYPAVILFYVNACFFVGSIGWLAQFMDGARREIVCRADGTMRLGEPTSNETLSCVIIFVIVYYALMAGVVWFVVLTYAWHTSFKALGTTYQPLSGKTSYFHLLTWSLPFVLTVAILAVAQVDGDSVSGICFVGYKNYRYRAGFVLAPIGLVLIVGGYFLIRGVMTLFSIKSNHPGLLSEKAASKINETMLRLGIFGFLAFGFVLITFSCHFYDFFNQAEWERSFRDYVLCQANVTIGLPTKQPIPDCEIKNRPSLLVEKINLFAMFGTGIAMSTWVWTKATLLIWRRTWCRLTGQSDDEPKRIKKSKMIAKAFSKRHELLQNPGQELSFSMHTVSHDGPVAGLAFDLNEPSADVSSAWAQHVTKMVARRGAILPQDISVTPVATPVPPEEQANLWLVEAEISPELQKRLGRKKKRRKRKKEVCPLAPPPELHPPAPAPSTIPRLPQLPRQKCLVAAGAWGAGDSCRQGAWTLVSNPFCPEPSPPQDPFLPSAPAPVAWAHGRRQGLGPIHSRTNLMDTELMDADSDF

For the compound `CC1=C2C[C@H]3[C@@H](CC=C4C[C@@H](O)CC[C@@]43C)[C@@H]2CC[C@]12O[C@@H]1C[C@H](C)CN[C@H]1[C@H]2C` [cyclopamine], in experiment [1], the “BODIPY-cyclopamine competition in hSmo-transfected HEK293 cells (positive contro)” value was “It was similar to the positive control, cyclopamine”.
As to `Cc1c(-c2ccnn2C)nnc(N2CCC(NC(=O)c3ccc(F)cc3C(F)(F)F)CC2)c1C` [L-4], the “BODIPY-cyclopamine competition in hSmo-transfected HEK293 cells (microscopy and)” value in experiment [2] was “there was a dose-dependent replacement of BODIPY-cyclopamine by L-4”.
